Data from article PMC11845477, “Exploring the principles behind antibiotics with limited resistance” (Nature Communications, 2025).

How the values were obtained:
[1] = system: E. coli ATCC 25922 (SEN) and E. coli NCTC13846 (MDR); assay: microbe, parasite or virus in culture; format: cell-based, Escherichia coli; conditions: for MIC: across three biological replicates
How it was run: (§1)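 Broth microdilution in cation-adjusted Mueller-Hinton Broth 2 (except SCH79797), 11–16-step serial dilutions, 5 × 10^5 cells/mL, 37 °C with shaking for 18 h, 2 replicates. MIC is the lowest concentration giving complete growth inhibition (OD600 < 0.05); relative MIC = MIC evolved/MIC ancestor.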

[2] = system: K. pneumoniae ATCC 10031 (SEN) and K. pneumoniae ATCC 700603 (MDR); assay: microbe, parasite or virus in culture; format: cell-based, Klebsiella pneumoniae; conditions: for MIC: across three biological replicates
How it was run: as §1

[3] = system: A. baumannii ATCC 17978 (SEN) and A. baumannii ATCC BAA-1605 (MDR); assay: microbe, parasite or virus in culture; format: cell-based, Acinetobacter baumannii; conditions: for MIC: across three biological replicates
How it was run: as §1

[4] = system: P. aeruginosa ATCC BAA-3107 (SEN) and P. aeruginosa LESB58 (MDR); assay: microbe, parasite or virus in culture; format: cell-based, Pseudomonas aeruginosa; conditions: for MIC: across three biological replicates
How it was run: as §1

[5] = system: E. coli ATCC 25922 (SEN) and E. coli NCTC13846 (MDR); assay: Frequency-of-resistance (FoR) assay, relative MIC of mutants; format: cell-based, Escherichia coli; conditions: for MIC: Escherichia coli, read-out: MIC of evolved line, Escherichia coli ATCC 25922 (EC-SEN)
How it was run: (§2)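 About 10^10 cells per strain were plated on MHB agar containing antibiotic at concentrations where the strain is susceptible, 48 h at 37 °C, in triplicate. Relative MIC = MICevolved/MICancestor.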

[6] = system: A. baumannii ATCC 17978 (SEN) and A. baumannii ATCC BAA-1605 (MDR); assay: as above; format: cell-based, Acinetobacter baumannii; conditions: for MIC: Acinetobacter baumannii, read-out: MIC of evolved line, Acinetobacter baumannii ATCC 17978 (AB-SEN)
How it was run: as §2

[7] = Escherichia coli ATCC 25922 (EC-SEN), ancestor strain, sheet fig 2a
[8] = Escherichia coli, Escherichia coli ATCC 25922 (EC-SEN)
[9] = Escherichia coli, Escherichia coli NCTC 13846 (EC-MDR)
[10] = Klebsiella pneumoniae ATCC 10031 (KP-SEN), ancestor strain, sheet fig 2a
[11] = Klebsiella pneumoniae, Klebsiella pneumoniae ATCC 10031 (KP-SEN)
[12] = Klebsiella pneumoniae, Klebsiella pneumoniae ATCC 700603 (KP-MDR)
[13] = Acinetobacter baumannii ATCC 17978 (AB-SEN), ancestor strain, sheet fig 2a
[14] = Acinetobacter baumannii, Acinetobacter baumannii ATCC 17978 (AB-SEN)
[15] = Acinetobacter baumannii, Acinetobacter baumannii ATCC BAA-1605 (AB-MDR)
[16] = Pseudomonas aeruginosa, ATCCBAA3107, Pseudomonas aeruginosa ATCC BAA-3107 (PA-SEN)
[17] = Pseudomonas aeruginosa, ATCCBAA3107, Pseudomonas aeruginosa LESB 58 (PA-MDR)
[18] = Escherichia coli ATCC 25922 (EC-SEN), evolved line 1 versus ancestor
[19] = Escherichia coli ATCC 25922 (EC-SEN), evolved line 2 versus ancestor
[20] = Escherichia coli ATCC 25922 (EC-SEN), evolved line 3 versus ancestor
[21] = Acinetobacter baumannii ATCC 17978 (AB-SEN), evolved line 1 versus ancestor
[22] = Acinetobacter baumannii ATCC 17978 (AB-SEN), evolved line 2 versus ancestor
[23] = Acinetobacter baumannii ATCC 17978 (AB-SEN), evolved line 3 versus ancestor

In the case of `O=c1ccc2ncc(=O)n3c2n1C[C@H]3CN1CCC(NCc2cc3c(cn2)OCCC3)CC1` [Gepotidacin], the MIC of ancestor ([1]; E. coli NCTC 13846 (EC-MDR), ancestor strain, sheet fig 2a) is reported as 2 µg/mL, the MIC of ancestor ([1]; EC-MDR, Escherichia coli NCTC 13846, ancestor strain) is reported as 2 µg/mL and the MIC of ancestor ([1]; EC-SEN, Escherichia coli ATCC 25922, ancestor strain) is reported as 1 µg/mL. It also gave an MIC of ancestor [1, 7] of 1 µg/mL, an MIC [1, 8] of 1 µg/mL and an MIC [1, 9] of 2 µg/mL. It also gave an MIC of ancestor ([2]; KP-SEN, Klebsiella pneumoniae ATCC 10031, ancestor strain) of 0.125 µg/mL, an MIC of ancestor [2, 10] of 0.125 µg/mL and an MIC [2, 11] of 0.125 µg/mL. It also gave an MIC [2, 12] of 16 µg/mL, an MIC of ancestor ([3]; AB-SEN, Acinetobacter baumannii ATCC 17978, ancestor strain) of 2 µg/mL and an MIC of ancestor [3, 13] of 2 µg/mL. The MIC [3, 14] was 2 µg/mL, the MIC [3, 15] was 32 µg/mL and the MIC of ancestor ([4]; P. aeruginosa ATCC BAA 3107 (PA-SEN), ancestor strain, sheet fig 2a) was 4 µg/mL. It also gave an MIC of ancestor ([4]; P. aeruginosa LESB 58 (PA-MDR), ancestor strain, sheet fig 2a) of 4 µg/mL, an MIC of ancestor ([4]; PA-MDR, Pseudomonas aeruginosa LESB 58, ancestor strain) of 4 µg/mL and an MIC of ancestor ([4]; PA-SEN, Pseudomonas aeruginosa ATCC BAA 3107, ancestor strain) of 4 µg/mL. For the same compound, the MIC [4, 16] was 4 µg/mL, the MIC [4, 17] was 4 µg/mL and the “Relative MIC” value ([5]; E. coli NCTC 13846 (EC-MDR), evolved line 1, evolved vs ancestor) was 1. For the same compound, the “Relative MIC” value ([5]; E. coli NCTC 13846 (EC-MDR), evolved line 2, evolved vs ancestor) was 1, the “Relative MIC” value ([5]; E. coli NCTC 13846 (EC-MDR), evolved line 3, evolved vs ancestor) was 1 and the “Relative MIC” value [5, 18] was 1. For the same compound, the “Relative MIC” value [5, 19] was 1, the “Relative MIC” value [5, 20] was 1 and the “Relative MIC” value [6, 21] was 16. For the same compound, the “Relative MIC” value [6, 22] was 4, the “Relative MIC” value [6, 23] was 16 and the MIC ([6]; evolved line 2) was 8 µg/mL.
Work on `CN(C)c1cc(CNCC(C)(C)C)c(O)c2c1C[C@H]1C[C@H]3[C@H](N(C)C)C(O)=C(C(N)=O)C(=O)[C@@]3(O)C(O)=C1C2=O` [Omadacycline] yielded an MIC of ancestor ([1]; Escherichia coli ATCC 25922 (EC-SEN), ancestor) of 2 µg/mL, an MIC of ancestor [1, 7] of 2 µg/mL and an MIC [1, 8] of 2 µg/mL. For the same compound, the MIC [1, 9] was 16 µg/mL, the MIC of ancestor ([2]; Klebsiella pneumoniae ATCC 10031 (KP-SEN), ancestor) was 1 µg/mL and the MIC of ancestor [2, 10] was 1 µg/mL. For the same compound, the MIC [2, 11] was 1 µg/mL, the MIC [2, 12] was > 32 µg/mL and the MIC of ancestor ([3]; Acinetobacter baumannii ATCC 17978 (AB-SEN), ancestor) was 0.5 µg/mL. The MIC of ancestor [3, 13] was 0.5 µg/mL, the MIC [3, 14] was 0.5 µg/mL and the MIC [3, 15] was 16 µg/mL. The MIC [4, 16] was > 32 µg/mL, the MIC [4, 17] was > 32 µg/mL and the “Relative MIC” value [5, 18] was 2. The “Relative MIC” value [5, 19] was 2, the “Relative MIC” value [5, 20] was 2 and the MIC ([5]; evolved line 1) was 4 µg/mL. The MIC ([5]; evolved line 2) was 4 µg/mL, the MIC ([5]; evolved line 3) was 4 µg/mL and the “Relative MIC” value [6, 21] was 8. For the same compound, the “Relative MIC” value [6, 22] was 8, the “Relative MIC” value [6, 23] was 8 and the MIC ([6]; evolved line 1) was 4 µg/mL. It also gave an MIC ([6]; evolved line 2) of 4 µg/mL and an MIC ([6]; evolved line 3) of 4 µg/mL.
`CC(C)c1ccc(Cn2ccc3c4c(N)nc(NC5CC5)nc4ccc32)cc1` [SCH79797] showed an MIC of ancestor ([1]; E. coli ATCC 25922 (EC-SEN), ancestor strain, sheet fig 2a) of 4 µg/mL, an MIC ([1]; Escherichia coli ATCC 25922 (EC-SEN)) of 4 µg/mL and an MIC ([1]; Escherichia coli NCTC 13846 (EC-MDR)) of 16 µg/mL. It also gave an MIC of ancestor ([1]; ancestor EC-SEN (Escherichia coli ATCC 25922)) of 4 µg/mL, an MIC of ancestor [2, 10] of 4 µg/mL and an MIC ([2]; Klebsiella pneumoniae ATCC 10031 (KP-SEN)) of 4 µg/mL. It also gave an MIC ([2]; Klebsiella pneumoniae ATCC 700603 (KP-MDR)) of 32 µg/mL, an MIC of ancestor ([2]; ancestor KP-SEN (Klebsiella pneumoniae ATCC 10031)) of 4 µg/mL and an MIC of ancestor [3, 13] of 4 µg/mL. For the same compound, the MIC ([3]; Acinetobacter baumannii ATCC 17978 (AB-SEN)) was 4 µg/mL, the MIC of ancestor ([3]; Acinetobacter baumannii ATCC BAA 1605 (AB-MDR), ancestor strain, sheet fig 2a) was 4 µg/mL and the MIC ([3]; Acinetobacter baumannii ATCC BAA-1605 (AB-MDR)) was 4 µg/mL. The MIC of ancestor ([3]; ancestor AB-MDR (Acinetobacter baumannii ATCC BAA 1605)) was 4 µg/mL, the MIC of ancestor ([3]; ancestor AB-SEN (Acinetobacter baumannii ATCC 17978)) was 4 µg/mL and the MIC ([4]; Pseudomonas aeruginosa ATCC BAA-3107 (PA-SEN)) was 32 µg/mL. The MIC ([4]; Pseudomonas aeruginosa LESB 58 (PA-MDR)) was >32 µg/mL, the MIC of evolved line ([5]; E. coli ATCC 25922 (EC-SEN), evolved line 1) was 8 µg/mL and the “Relative MIC” value ([5]; E. coli ATCC 25922 (EC-SEN), evolved line 1, evolved vs ancestor) was 2. For the same compound, the MIC of evolved line ([5]; E. coli ATCC 25922 (EC-SEN), evolved line 2) was 8 µg/mL, the “Relative MIC” value ([5]; E. coli ATCC 25922 (EC-SEN), evolved line 2, evolved vs ancestor) was 2 and the MIC of evolved line ([5]; E. coli ATCC 25922 (EC-SEN), evolved line 3) was 8 µg/mL. The “Relative MIC” value ([5]; E. coli ATCC 25922 (EC-SEN), evolved line 3, evolved vs ancestor) was 2, the “Relative MIC” value ([5]; FoR assay, Escherichia coli ATCC 25922 (EC-SEN), evolved line 1) was 2 and the “Relative MIC” value ([5]; FoR assay, Escherichia coli ATCC 25922 (EC-SEN), evolved line 2) was 2. The “Relative MIC” value ([5]; FoR assay, Escherichia coli ATCC 25922 (EC-SEN), evolved line 3) was 2, the MIC of evolved line ([6]; Acinetobacter baumannii ATCC 17978 (AB-SEN), evolved line 1) was 8 µg/mL and the MIC of evolved line ([6]; Acinetobacter baumannii ATCC 17978 (AB-SEN), evolved line 2) was 8 µg/mL. For the same compound, the MIC of evolved line ([6]; Acinetobacter baumannii ATCC 17978 (AB-SEN), evolved line 3) was 8 µg/mL, the “Relative MIC” value [6, 21] was 2 and the “Relative MIC” value [6, 22] was 2. For the same compound, the “Relative MIC” value [6, 23] was 2, the MIC of evolved line ([6]; Acinetobacter baumannii ATCC BAA 1605 (AB-MDR), evolved line 2) was 4 µg/mL and the MIC of evolved line ([6]; Acinetobacter baumannii ATCC BAA 1605 (AB-MDR), evolved line 1) was 2 µg/mL. For the same compound, the “Relative MIC” value ([6]; Acinetobacter baumannii ATCC BAA 1605 (AB-MDR), evolved line 1 versus ancestor) was 1, the “Relative MIC” value ([6]; Acinetobacter baumannii ATCC BAA 1605 (AB-MDR), evolved line 2 versus ancestor) was 1 and the MIC of evolved line ([6]; Acinetobacter baumannii ATCC BAA 1605 (AB-MDR), evolved line 3) was 4 µg/mL. For the same compound, the “Relative MIC” value ([6]; Acinetobacter baumannii ATCC BAA 1605 (AB-MDR), evolved line 3 versus ancestor) was 1, the “Relative MIC” value ([6]; FoR assay, Acinetobacter baumannii ATCC 17978 (AB-SEN), evolved line 1) was 2 and the “Relative MIC” value ([6]; FoR assay, Acinetobacter baumannii ATCC 17978 (AB-SEN), evolved line 2) was 2. For the same compound, the “Relative MIC” value ([6]; FoR assay, Acinetobacter baumannii ATCC 17978 (AB-SEN), evolved line 3) was 2, the “Relative MIC” value ([6]; FoR assay, Acinetobacter baumannii ATCC BAA 1605 (AB-MDR), evolved line 1) was 1 and the “Relative MIC” value ([6]; FoR assay, Acinetobacter baumannii ATCC BAA 1605 (AB-MDR), evolved line 2) was 1. The “Relative MIC” value ([6]; FoR assay, Acinetobacter baumannii ATCC BAA 1605 (AB-MDR), evolved line 3) was 1.
